Experimental data as given in US20240094211A1, “COMPOSITIONS AND METHODS TARGETING S100A10 FOR THE TREATMENT AND DIAGNOSIS OF LIVER CANCER” (The University of Hong Kong, priority 2022, published 2024).

Assays:
HCC cells (PLC, 97L) [1] = test: Chemotherapy-induced cytotoxicity / chemoresistance (XTT assay); type: cell-based, human; settings: for cell viability of S100A10-OE cells versus controls on treatment: PLC and 97L
S100A10 = S100A10 expression under chemotherapeutic treatment (qRT-PCR, western blot); type: cell-based, human; settings: HCC cells treated with chemotherapeutic agents
Protocol: Total RNA was extracted using the TRIZOL Reagent (Life Technologies). cDNA was synthesized by reverse transcription (Roche). SYRB Green PCR Master Mix (Applied Biosystems) and Applied Biosystems Quant Studio 5 Real-time PCR System were used for qRT-PCR analysis. All qRT-PCR reactions were tested in triplicates.
(§1) Quantified protein lysates were resolved on SDS-PAGE, transferred onto a polyvinylidenedifluoride (PVDF) membrane (Bio-Rad), and then blocked with 5% non-fat milk in Tris-buffered saline-Tween 20 (TBST) for 1 h at room temperature. The blocked membrane was then incubated with primary antibody diluted in 5% bovine serum albumin in TBST at 4° C. overnight.

[2] = system: PLC-S100A10 xenograft tumors; test: Chemoresistance / treatment in subcutaneous xenograft model; type: in vivo; settings: nude mice
Protocol: All animal experiments were conducted and approved by the University of Hong Kong Committee on the Use of Live Animals in Teaching and Research (CULATR). The frequency of CSCs with tumor initiation capabilities was evaluated using limiting dilution assay. The BALB/c nude mouse xenograft model was used to evaluate tumorigenicity and chemoresistant ability in vivo. Nude mice were intrasplenically injected with HCC cells to assess the liver metastatic capacity in vivo. After surgery, mice recovered from anesthesia in a cage under a heater. Analgesia was provided to the nude mice during the first postoperative week. Tail vein injection of luciferase-labelled MHCC-97L cells in NOD SCID mice was used to assess lung metastatic ability. After mice were killed, the tumor tissues, livers, spleens, and lungs were excised and fixed in 4% paraformaldehyde overnight. Thereafter, fixed tissues were embedded in paraffin for further studies.
For chemoresistance in xenograft model, subcutaneous xenografts in nude mice were established with PLC/PRF/5 or MHCC97L cells. Treatment was started once the size of the xenograft reached ˜5 mm in diameter. The mice were randomly assigned into different groups, each consisting of at least 5 mice. Sorafenib at 10 mg/kg was administered daily through oral gavage. Mouse IgG antibody or anti-S100A10 antibody was administered at 10 μg once every 3 days by intraperitoneal injection.

HCC cells (PLC, 97L) [3] = test: Apoptotic assay (annexin-V staining, flow cytometry); type: cell-based, human; settings: PLC and 97L, 48 h
Protocol: The apoptotic assay was determined by flow cytometry using annexin-V staining.

HIF-1α = HIF-1α expression under chemotherapeutic treatment (western blot); type: cell-based, human; settings: HCC cells treated with chemotherapeutic agents
Protocol: as §1

PLC cells [4] = test: Sphere formation assay; type: cell-based, human
Protocol: A total of 1,000 cells were cultured in 0.25% methyl cellulose (Sigma-Aldrich) supplemented DMEM/F12 medium (Life Technologies) with 20 ng/mL EGF (Life Technologies), 10 ng/mL basic FGF (Life Technologies), B27 (1:50, GIBCO), and 4 μg/mL insulin (BIOIND, Kibbutz Beit Haemek, Israel) in 24-well plates, which were coated with poly HEMA (Sigma-Aldrich). The cells were replenished with 30 μL supplementary medium every other day.
(§2) HCC cells were seeded in 6-well plate and subjected to 2 μg EVs treatment for 48 hours one day after seeding. Then the cells were used for functional studies or western blotting. For treating with neutralizing antibodies, EVs were incubated with PBS (1:10 volume/volume), IgG antibody (1:10 volume/volume) (Santa Cruz, sc-2025), or anti-S100A10 neutralizing antibody (1:10 volume/volume) (Santa Cruz, sc-81153) before they were applied in in vitro or in vivo assays. For S100A10 NA or ITGAV treatment before EVs isolation, 20 ug S100A10 NA or IgG were pre-incubate with 1,000 million cells and then seed in medium with 10% EVs free FBS. Then the EVs were collected after 48 hours.

HCC cells (PLC, 97L) [5] = test: Transwell migration and matrigel invasion assays (pretreated HCC cells); type: cell-based, human
Protocol: Transwell migration and invasion assays were performed to evaluate cell motility (Corning, #353097 for migration, #354480 for invasion). Approximately 1×10^5 cells were seeded in the medium without FBS on transwell upper chambers, and the lower chamber was supplied with medium with 10% FBS, with the indicated conditional medium, or EVs. The cells that migrated and invaded to the lower membrane surface were stained using crystal violet and then counted under microscopy.
as §2

PLC cells [6] = test: Focus formation assay; type: cell-based, human
Protocol: Focus formation assay was used to assess anchorage-dependent growth. In brief, 1,000 cells were seeded in each well of six-well plate for approximately 2-3 weeks. Surviving colonies were stained and counted using crystal violet (Sigma-Aldrich).
as §2

PLC-Vec/S100A10 cells = test: XTT assay for cell proliferation with gefitinib; type: cell-based, human
[7] = system: MMP2, fibronectin and EGF on EVs; test: Western blotting of MMP2, fibronectin, EGF and S100A10 in EVs and cells; type: cell-based, human; settings: PLC-S100A10 cells treated 48 hours, compared with control GRADSP peptides (RAD)
Protocol: For EVs isolation from cell culture supernatants, HCC cells were cultured in medium with 10% EV-depleted FBS, which was prepared by 100,000× g centrifugation overnight (≥12 h) at 4° C. (Himac, CP100NX Ultracentrifuges). EVs were purified by differential centrifugation after the cell culture supernatant were collected. Briefly, cell culture supernatants were centrifuged at 2000×g for 15 min to remove cell debris and dead cells. Then the supernatant was centrifugated at 20000×g for 30 min at 4° C. to remove microvesicles. Then the supernatant was first passed through 0.22 μm filter followed by ultracentrifugation at 100,000×g for 2 h at 4° C. to collect EVs. The EVs were then washed with PBS and collected by ultracentrifugation at 100,000×g for another 2 h at 4° C. HCC patients' or healthy donors' plasma derived EVs were purified by differential centrifugation. The plasma was first centrifuged at 4000 g for 15 min to obtain cell-free plasma. Then, 500 μL of the obtained plasma was toped-up to 1 mL and then centrifuged at 20,000 g for 1 hour (Himac, CP100NX Ultracentrifuges). The collected supernatants were then centrifuged at 100,000 g for 2 h at 4° C. […]
Quantified protein lysates were resolved on SDS-PAGE, transferred onto a polyvinylidenedifluoride (PVDF) membrane (Bio-Rad), and then blocked with 5% non-fat milk in Tris-buffered saline-Tween 20 (TBST) for 1 h at room temperature. […]

Row | Compound | cell viability of S100A10-OE cells versus controls on treatment (HCC cells (PLC, 97L) [1]) | expression of S100A10 (S100A10) | xenograft tumor growth in PLC-S100A10 group versus control group when treated [2] | apoptotic indices of S100A10-OE cells versus controls on treatment (HCC cells (PLC, 97L) [3]) | expression of HIF-1α (HIF-1α) | further results
1 | O=c1[nH]cc(F)c(=O)[nH]1 [5-FU, 5-flurouracil] | significantly higher | upregulated | significantly larger | lower |  | 
2 | N.N.[Cl][Pt][Cl] [cisplatin] | significantly higher | upregulated | significantly larger | lower | upregulated | 
3 | COc1cc2ncnc(Nc3ccc(F)c(Cl)c3)c2cc1OCCCN1CCOCC1 [gefitinib] |  |  |  |  |  | chemoresistance of S100A10-OE cells (HCC cells (PLC, 97L) [1]; PLC S100A10-OE cells, sorafenib): significantly suppressed; sphere formation of S100A10-OE cells (PLC cells [4]): significantly suppressed; invasion ability of S100A10-OE cells (HCC cells (PLC, 97L) [5]): significantly suppressed; migration ability of S100A10-OE cells (HCC cells (PLC, 97L) [5]): significantly suppressed; focus formation of S100A10-OE cells (PLC cells [6]): significantly suppressed; sensitivity of S100A10-OE cells versus Vec cells (cell proliferation) (PLC-Vec/S100A10 cells): more sensitive
4 | GRGDSP [RGD peptide] |  |  |  |  |  | S100A10 on EVs [7]: no changes; levels of MMP2, fibronectin and EGF on EVs [7]: greatly reduced
5 | CNC(=O)c1cc(Oc2ccc(NC(=O)Nc3ccc(Cl)c(C(F)(F)F)c3)cc2)ccn1 [sorafenib] | significantly higher | upregulated | significantly larger | lower | upregulated | 
